System: P. aeruginosa biofilm
Assay: Crystal violet biofilm assay, early (8 h preformed) biofilm disruption
Format: cell-based
Conditions: biofilm preformed for 8 hours, compared with wild type LUZ19
Experimental: To validate that a Gp34 L55Δ mutation had improved viral properties, the LUZ19 viral genome was isolated from viral particles. Site-specific digestion was performed using an RNA-dependent nuclease and in vitro transcribed gRNAs to remove the gp34 gene (SEQ ID NO:4). The gp34 L55Δ gene, which harbors a deletion of leucine codon at amino acid position 55 (Gp34 L55Δ, position 163-165 of SEQ ID NO:4) was PCR amplified from a LUZ19 evolved phage. The Gibson Assembly method was used to integrate the PCR amplified gp34 L55Δ gene seamlessly into the digested LUZ19 genome. The in vitro transformed genomes were transformed directly into host cells to yield functional viral particles. The engineered LUZ19 virus harboring Gp34 L55Δ was able to diffuse and lyse bacteria. […] Images were taken and zones of clearing were measured over a two-day period (FIG. 5B). […] Crystal violet biofilm assay measures biofilm accumulation as a measure of the incorporation of crystal violet (FIG. 5C). […]
The LUZ19*LKD16gp18 virus was analyzed for improved viral properties, using double agar plaque, biofilm, and an in vitro human keratinocyte attachment assays. […] Specifically, LUZ19*LKD16gp18 and wild type LUZ19 were incubated with a P. aeruginosa biofilm and disruption was measured using crystal violet. […] The LUZ19*LKD16gp18 virus was analyzed for efficacy of phage treatment against bacteria attached to human keratinocytes. […]

Substance: Gentamicin
- early biofilm disruption: completely remove biofilm

Source: patent US11913032B2, “Compositions of and methods for in vitro viral genome engineering” (C3J Therapeutics, Inc., priority 2014, dated 2024)
